Measurements reported in ChEMBL document CHEMBL1255206, “Design and synthesis of a new class of malonyl-CoA decarboxylase inhibitors with anti-obesity and anti-diabetic activities” (Bioorg Med Chem Lett, 2010).
Each block holds one compound with its values, some of them ahead of it.

Tests used:
[1] = target: T1, Malonyl-CoA decarboxylase, mitochondrial (Homo sapiens, UniProt O95822); experiment: Inhibition of human MCD
T1 sequence (O95822 whole entry): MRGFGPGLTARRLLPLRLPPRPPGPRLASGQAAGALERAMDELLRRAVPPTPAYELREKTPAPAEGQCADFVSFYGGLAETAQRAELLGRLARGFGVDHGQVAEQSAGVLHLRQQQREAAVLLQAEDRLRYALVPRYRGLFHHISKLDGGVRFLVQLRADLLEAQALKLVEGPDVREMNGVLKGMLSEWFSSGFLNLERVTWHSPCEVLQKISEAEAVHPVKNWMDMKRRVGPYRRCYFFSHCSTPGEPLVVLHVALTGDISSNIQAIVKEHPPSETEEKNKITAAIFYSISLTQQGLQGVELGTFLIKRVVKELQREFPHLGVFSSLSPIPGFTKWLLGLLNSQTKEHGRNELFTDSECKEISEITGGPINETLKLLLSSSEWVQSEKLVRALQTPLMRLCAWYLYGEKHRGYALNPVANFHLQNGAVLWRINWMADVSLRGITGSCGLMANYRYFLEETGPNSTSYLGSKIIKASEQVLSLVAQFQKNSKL

[2] = target: T2, Malonyl-CoA decarboxylase, mitochondrial (Mus musculus, UniProt Q99J39); experiment: Inhibition of MCD in mouse hepatocytes by whole cell assay; type: cell-based, Hepatocyte
T2 sequence (Q99J39 whole entry): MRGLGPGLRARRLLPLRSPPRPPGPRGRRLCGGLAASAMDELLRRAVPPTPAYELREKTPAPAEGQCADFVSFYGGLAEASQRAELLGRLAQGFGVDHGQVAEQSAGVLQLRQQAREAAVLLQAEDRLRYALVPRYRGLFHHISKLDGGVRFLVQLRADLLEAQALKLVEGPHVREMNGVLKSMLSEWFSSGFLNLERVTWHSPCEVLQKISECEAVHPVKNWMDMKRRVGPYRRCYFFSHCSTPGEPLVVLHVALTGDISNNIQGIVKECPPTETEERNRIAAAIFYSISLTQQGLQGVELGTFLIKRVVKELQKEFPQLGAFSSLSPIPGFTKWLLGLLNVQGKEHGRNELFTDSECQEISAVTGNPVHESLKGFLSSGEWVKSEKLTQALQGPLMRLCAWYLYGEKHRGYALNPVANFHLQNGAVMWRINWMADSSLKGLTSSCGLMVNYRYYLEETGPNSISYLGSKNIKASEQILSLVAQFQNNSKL

Mus musculus [3] = experiment: Antiobesity activity in C57B6N mouse assessed as change in chronic food intake at 30 mg/kg, po; type: functional
Mus musculus [4] = experiment: Antiobesity activity in C57B6N mouse assessed as change in hyphalamic malonyl-coA level at 30 mg/kg, po; type: functional
Mus musculus [5] = experiment: Antiobesity activity in C57B6N mouse assessed as change in body weight at 100 mg/kg, po; type: functional
Mus musculus [6] = experiment: Antiobesity activity in C57B6N mouse assessed as change in chronic food intake at 100 mg/kg, po; type: functional
Mus musculus [7] = experiment: Antiobesity activity in C57B6N mouse assessed as change in body weight at 30 mg/kg, po; type: functional
Mus musculus [8] = experiment: Antidiabetic activity in C57B6N mouse assessed as blood glucose correction at 30 mg/kg, po; type: functional
Mus musculus [9] = experiment: Antiobesity activity in C57B6N mouse assessed as change in hyphalamic malonyl-coA level at 100 mg/kg, po; type: functional
Mus musculus [10] = experiment: Antidiabetic activity in C57B6N mouse assessed as decrease in beta-hydroxybutyrate at 30 mg/kg, po; type: functional; design: scale not given: the % may be the effect or the level left
Mus musculus [11] = experiment: Antidiabetic activity in C57B6N mouse assessed as blood glucose correction at 10 mg/kg, po; type: functional
Mus musculus [12] = experiment: Antidiabetic activity in C57B6N mouse assessed as decrease in beta-hydroxybutyrate at 3 mg/kg, po; type: functional; design: scale not given: the % may be the effect or the level left
Mus musculus [13] = experiment: Antidiabetic activity in C57B6N mouse assessed as blood glucose correction at 3 mg/kg, po; type: functional
Mus musculus [14] = experiment: Antidiabetic activity in C57B6N mouse assessed as decrease in beta-hydroxybutyrate at 10 mg/kg, po; type: functional; design: scale not given: the % may be the effect or the level left

Structure (SMILES): Cc1cc(C(O)(C(F)(F)F)C(F)(F)F)ccc1C(Cc1cc[n+]([O-])cc1)c1ccc(OC(F)F)c(OC(F)F)c1 (configuration not stated)
- IC50 [1]: 13.3 nM

Structure (SMILES): OC(c1cnc(C2CCN(c3ccc(F)cc3)CC2)s1)(C(F)(F)F)C(F)(F)F
- EC50 [2]: > 20000 nM

Structure (SMILES): NC(=O)c1cccc(N2CCC(c3ncc(C(O)(C(F)(F)F)C(F)(F)F)s3)CC2)c1
- EC50 [2]: 2000 nM

Structure (SMILES): NC(=O)c1cccc(C2CCN(c3ncc(C(O)(C(F)(F)F)C(F)(F)F)s3)CC2)c1
- EC50 [2]: 950 nM

Structure (SMILES): NC(=O)C1(c2ccccc2)CCN(c2ncc(C(O)(C(F)(F)F)C(F)(F)F)s2)CC1
- Activity (Mus musculus [3]): -2.4%
- EC50 [2]: 1100 nM
- Activity (Mus musculus [4]): 29%
- Activity (Mus musculus [5]): 14.3%
- Activity (Mus musculus [6]): -5.7%
- Activity (Mus musculus [7]): -5.5%
- Activity (Mus musculus [8]): 41%
- Activity (Mus musculus [9]): 70%
- Activity (Mus musculus [10]): 60%

Structure (SMILES): CNC(=O)C1(c2ccccc2)CCN(c2ncc(C(O)(C(F)(F)F)C(F)(F)F)s2)CC1
- EC50 [2]: 640 nM

Structure (SMILES): NC(=O)C1(c2cccc(C(=O)O)c2)CCN(c2ncc(C(O)(C(F)(F)F)C(F)(F)F)s2)CC1
- EC50 [2]: 150 nM

Structure (SMILES): CS(=O)(=O)NC(=O)C1(c2ccccc2)CCN(c2ncc(C(O)(C(F)(F)F)C(F)(F)F)s2)CC1
- EC50 [2]: 500 nM
- Activity (Mus musculus [11]): 53%
- Activity (Mus musculus [12]): -12%
- Activity (Mus musculus [8]): 48%
- Activity (Mus musculus [13]): 28%
- Activity (Mus musculus [14]): 53%
- Activity (Mus musculus [10]): 60%

Continued, in another order:

- EC50 [2]: 230 nM
Structure (SMILES): O=C(O)c1cccc(C2CCN(c3ncc(C(O)(C(F)(F)F)C(F)(F)F)s3)CC2)c1

- EC50 [2]: > 20000 nM
Structure (SMILES): OC(c1cnc(N2CCN(c3ccc(F)c(F)c3)CC2)s1)(C(F)(F)F)C(F)(F)F

- EC50 [2]: 1400 nM
Structure (SMILES): NC(=O)c1cccc(N2CCN(c3ncc(C(O)(C(F)(F)F)C(F)(F)F)s3)CC2)c1
- Activity (Mus musculus [3]): 0.8%
- Activity (Mus musculus [4]): 50%
- Activity (Mus musculus [5]): -2.2%
- Activity (Mus musculus [6]): 0.8%
- Activity (Mus musculus [7]): -3.3%
- Activity (Mus musculus [8]): 32%
- Activity (Mus musculus [9]): 36%
- Activity (Mus musculus [10]): 78%

- EC50 [2]: 630 nM
Structure (SMILES): CNC(=O)c1cccc(N2CCN(c3ncc(C(O)(C(F)(F)F)C(F)(F)F)s3)CC2)c1
- Activity (Mus musculus [3]): -1.3%
- Activity (Mus musculus [4]): 65%
- Activity (Mus musculus [5]): 20%
- Activity (Mus musculus [6]): -12.4%
- Activity (Mus musculus [7]): -2.1%
- Activity (Mus musculus [8]): 30%
- Activity (Mus musculus [9]): 186%
- Activity (Mus musculus [10]): 65%
